Test results as given in patent US9708321B2, “Spiro-quinazolinone derivatives and their use as positive allosteric modulators of mGluR4” (Merck Patent GmbH, priority 2013, dated 2017).

Molecular target: T1, hmGluR4 (Homo sapiens, UniProt Q14833)
T1 construct: host or cells: HEK293T
Assay: HEK-293 mGluR4 cells cAMP assay with EC20 L-Glutamate (HTRF)
Type: cell-based
Settings: positive allosteric activity at EC20 L-Glutamate, 10 μM Forskolin, HEK293T mGluR4 cells, cAMP HTRF; read-out: hrmGluR4/HEK293T-hmGluR4 (EC50)
Procedure: II. Biological Assays HEK-293 mGluR4 Cells cAMP Assay with EC20 L-Glutamate
Using mGluR4 suspension cell format, 10 μM Forskolin (final conc.) used to induce the production of cAMP.
Test the positive allosteric activity of the compounds of the invention at EC20 (2.3 μM for mGluR4 and 4.3 μM for mGluR6) L-Glutamate,
cAMP dymanic2 kit is intended for the direct quantitative determination of cAMP and its principle is based on HTRF technology.
• Cells: HEK293T mGluR4 cells from Multispan, cat# C1191a lot# C1191a-040910 • Culture Media: DMEM+GlutaMAX1+10% dialyzed FBS, 100 mM Sodium Pyruvate, 1 ug/ml puromycin. • Glutamine Starvation Media: DMEM without GlutaMax for plating the cells (glutamine starvation overnight). DMEM high Glucose, without phenol red, glutamine, or sodium pyruvate+10% dialyzed FBS, 100 mM Sodium Pyruvate, 1 ug/ml puromycin, 10 mM Hepes. • Hanks' balanced Salt Solution, HBSS from Invitrogen • Greiner 384 well white low volume high base plate (784075) • cAMP dynamic2 from Cisbio Bioassays • Glutamate: L-Glutamaic acid, monosodium salt, Monohydrate, 98%, from Sigma-Aldrich • Cell Preparation: split cells at 80%-90% confluence. The following day, rinse the cells with DMEM without GlutaMax and change to Glutamine Starvation Media. Incubate overnight. Assay: • Prepare compound plate: Perform compound serial dilution (uses Matrix 4341 plate), using the Bravo liquid handling platform protocol (compound serial dilution) which adds DMSO to columns 1-24 (except cols. 3 and 13). Serial dilute compounds located in columns 3 and 13 at a 1:3 ratio; 10 points (10 ul of 3 mM compound into 20 ul DMSO). Use the Bravo liquid handling platform to transfer 1 ul from the serial dilution plate into Matrix 4314 plate to create stamp plates. Prepare Compound Dilution Buffer: • Dilute 20 mM Forskolin (in DMSO) stock solution in HBSS buffer to make a 20 uM solution (forskolin buffer; 2× solution). To the forskolin buffer, add glutamate to a concentration of 8 uM (compound dilution buffer; 2× EC20 glutamate and forskolin). • Using a multidrop, add 50 ul/well of compound dilution buffer to columns 1-22 of the 2 ul compound stamp plate. Columns 23 and 24 receive forskolin buffer containing 400 uM glutamate (EC100 glutamate; 2× solution). Columns 1 and 2 receive compound dilution buffer containing EC20 glutamate, which is the basal control. • Add a glutamate dose response to row P of compound plate. Prepare the dose response by serial diluting glutamate at a 1:3 ratio in forskolin buffer starting at 2 mM glutamate (2×). Dilute the glutamate 9 times and transfer to compound plate. Prepare Cell Plates: • Harvest cells: Rinse cells with pre-warmed HBSS-10 mM HEPES (without Ca Mg) and dissociate the cells from the flask with versene. Centrifuge the cells, remove the supernatant and suspend in pre-warmed HBSS+10 mM Hepes. Count the cells and centrifuge. Remove the supernatant and suspend the cells in HBSS+Hepes (with Ca Mg) at a density of 400,000 cells/ml. Perform Assay: • Dispense 5 ul from the diluted compound plate into Greiner low volume cell plate using the Bravo liquid handling platform. Using a Multidrop with the small tubing cassette, dispense 5 ul of cells (2000 cells/well) onto the compounds contained in the low volume plates. Incubate the cells at 37° C., 5% CO2 for 30 minutes in the incubator. Assay for cAMP: • Prepare cAMP-d2 and anti-cAMP-Crytate according to the instructions for the two step assay (see Cisbio manual) and add 10 ul of the mixed reagent to each well of the assay plate using the Multidrop. Incubate at room temperature for 60 minutes and read on the Envision plate reader using the mGluR low volume cAMP HTRF 384 well protocol.

T1 sequence (Q14833 33-912): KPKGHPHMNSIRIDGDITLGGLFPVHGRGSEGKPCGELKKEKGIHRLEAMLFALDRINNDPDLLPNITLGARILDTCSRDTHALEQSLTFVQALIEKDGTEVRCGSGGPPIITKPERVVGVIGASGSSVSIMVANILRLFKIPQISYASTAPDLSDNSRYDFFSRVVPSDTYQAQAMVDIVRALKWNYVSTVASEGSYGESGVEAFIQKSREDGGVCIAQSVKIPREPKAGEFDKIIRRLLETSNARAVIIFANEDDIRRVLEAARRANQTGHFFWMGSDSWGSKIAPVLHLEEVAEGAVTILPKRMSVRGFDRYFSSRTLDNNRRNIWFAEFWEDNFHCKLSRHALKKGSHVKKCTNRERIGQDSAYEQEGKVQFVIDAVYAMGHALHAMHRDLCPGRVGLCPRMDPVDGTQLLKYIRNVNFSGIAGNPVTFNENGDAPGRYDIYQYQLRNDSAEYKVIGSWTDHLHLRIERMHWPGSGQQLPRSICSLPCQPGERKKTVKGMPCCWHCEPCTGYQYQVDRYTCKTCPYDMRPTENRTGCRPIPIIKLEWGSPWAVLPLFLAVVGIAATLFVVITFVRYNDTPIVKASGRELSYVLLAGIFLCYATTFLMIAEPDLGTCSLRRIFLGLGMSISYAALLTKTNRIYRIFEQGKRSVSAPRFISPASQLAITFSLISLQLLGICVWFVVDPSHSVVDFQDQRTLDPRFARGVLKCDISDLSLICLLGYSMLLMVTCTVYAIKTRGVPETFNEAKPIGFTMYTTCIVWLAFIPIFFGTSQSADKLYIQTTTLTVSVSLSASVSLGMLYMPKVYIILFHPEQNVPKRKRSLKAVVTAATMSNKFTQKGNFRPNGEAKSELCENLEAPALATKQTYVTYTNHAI

Row | SMILES | EC50 [nM]
1 | COc1ccc(N2C(=O)c3ccccc3NC23CN(Cc2ccc(Cl)cc2)C3)cc1 [Compound 85, 1-(4-Chlorobenzyl)-3′-(4-methoxyphenyl)-1′H-spiro[azetidine-3,2′-quinazolin]-4′(3′H)-one] | 1000 to 10000
2 | COc1ccc(N2C(=O)c3ccc(OC)cc3NC23CCN(Cc2cccc(F)c2)CC3)cc1 [Compound 68, 1-(3-Fluorobenzyl)-7′-methoxy-3′-(4-methoxyphenyl)-1′H-spiro[piperidine-4,2′-quinazolin]-4′(3′H)-one] | 1000 to 10000
3 | CN(C)Cc1ccc(-c2ccc3c(c2)NC2(CCN(Cc4ccc(F)c(F)c4)CC2)N(c2ccc(OC(F)(F)F)cc2)C3=O)o1 [Compound 74, 1-(3,4-Difluorobenzyl)-7′-(5-((dimethylamino)methyl)furan-2-yl)-3′-(4-(trifluoromethoxy)phenyl)-1′H-spiro[piperidine-4,2′-quinazolin]-4′(3′H)-one] | 1000 to 10000
4 | O=C1c2ccc(Br)cc2NC2(CCN(Cc3cnc(Br)s3)CC2)N1c1ccc(OC(F)(F)F)cc1 [Compound 110, 7′-Bromo-1-((2-bromothiazol-5-yl)methyl)-3′-(4-(trifluoromethoxy)phenyl)-1′H-spiro[piperidine-4,2′-quinazolin]-4′(3′H)-one] | 1000 to 10000
5 | O=C1c2ccc(Br)cc2NC2(CCN(C(c3ccc(F)c(F)c3)C(F)(F)F)CC2)N1c1ccc(OC(F)(F)F)cc1 (stereo not shown) [Compound 107, 7′-Bromo-1-(1-(3,4-difluorophenyl)-2,2,2-trifluoroethyl)-3′-(4-(trifluoromethoxy)phenyl)-1′H-spiro[piperidine-4,2′-quinazolin]-4′(3′H)-one] | < 1000
6 | COc1ccc(N2C(=O)c3ccccc3NC23CN(Cc2cccc(C)c2)C3)cc1 [Compound 89, 3′-(4-Methoxyphenyl)-1-(3-methylbenzyl)-1′H-spiro[azetidine-3,2′-quinazolin]-4′(3′H)-one] | 1000 to 10000
7 | COc1ccc(N2C(=O)c3ccc(Cl)cc3NC23CCN(Cc2cccc(Cl)c2)CC3)cc1 [Compound 38, 7′-Chloro-1-(3-chlorobenzyl)-3′-(4-methoxyphenyl)-1′H-spiro[piperidine-4,2′-quinazolin]-4′(3′H)-one] | < 1000
8 | O=C1c2ccc(F)cc2NC2(CCN(Cc3ccc(F)c(F)c3)CC2)N1c1ccc(Br)cc1 [Compound 51, 3′-(4-Bromophenyl)-1-(3,4-difluorobenzyl)-7′-fluoro-1′H-spiro[piperidine-4,2′-quinazolin]-4′(3′H)-one] | < 1000
9 | O=C1c2ccc(Br)cc2NC2(CCN(Cc3ccccc3)CC2)N1c1ccc(Cl)cc1 [Compound 71, 1-Benzyl-7′-bromo-3′-(4-chlorophenyl)-1′H-spiro[piperidine-4,2′-quinazolin]-4′(3′H)-one] | 1000 to 10000
10 | O=C1c2ccc(C(F)(F)F)cc2NC2(CCN(Cc3cccc(Cl)c3)CC2)N1c1ccc(OC(F)(F)F)cc1 [Compound 10, 1-(3-Chlorobenzyl)-3′-(4-(trifluoromethoxy)phenyl)-7′-(trifluoromethyl)-1′H-spiro[piperidine-4,2′-quinazolin]-4′(3′H)-one] | < 1000
11 | COc1cccc(N2C(=O)c3ccccc3NC23CCN(Cc2cc(Cl)ccc2Cl)CC3)c1 [Compound 115, 1-(2,5-Dichlorobenzyl)-3′-(3-methoxyphenyl)-1′H-spiro[piperidine-4,2′-quinazolin]-4′(3′H)-one] | 1000 to 10000
12 | COCCOc1ccc2c(c1)NC1(CCN(Cc3ccc(F)c(F)c3)CC1)N(c1ccc(OC(F)(F)F)cc1)C2=O [Compound 121, 1-(3,4-Difluorobenzyl)-7′-(2-methoxyethoxy)-3′-(4-(trifluoromethoxy)phenyl)-1′H-spiro[piperidine-4,2′-quinazolin]-4′(3′H)-one] | 1000 to 10000
13 | COc1ccc(N2C(=O)c3ccc(-c4cncs4)cc3NC23CCN(Cc2ccc(F)c(F)c2)CC3)cc1 [Compound 45, 1-(3,4-Difluorobenzyl)-3′-(4-methoxyphenyl)-7′-(thiazol-5-yl)-1′H-spiro[piperidine-4,2′-quinazolin]-4′(3′H)-one] | < 1000
14 | COc1ccc(N2C(=O)c3ccccc3NC23CN(Cc2c(F)cc(F)cc2F)C3)cc1 [Compound 119, 3′-(4-Methoxyphenyl)-1-(2,4,6-trifluorobenzyl)-1′H-spiro[azetidine-3,2′-quinazolin]-4′(3′H)-one] | 1000 to 10000
15 | O=C1c2ccc(Br)cc2NC2(CCN(Cc3ccc(F)c(F)c3)CC2)N1c1ccc(Cl)cc1 [Compound 25, 7′-Bromo-3′-(4-chlorophenyl)-1-(3,4-difluorobenzyl)-1′H-spiro[piperidine-4,2′-quinazolin]-4′(3′H)-one] | < 1000
16 | CC(c1ccc(F)c(F)c1)N1CCC2(CC1)Nc1cc(Br)ccc1C(=O)N2c1ccc(Cl)cc1 (stereo not shown) [Compound 7, 7′-Bromo-3′-(4-chlorophenyl)-1-(1-(3,4-difluorophenyl)ethyl)-1′H-spiro[piperidine-4,2′-quinazolin]-4′(3′H)-one] | < 1000
17 | COc1ccc(N2C(=O)c3ccccc3NC23CCC(NC(=O)OC(C)(C)C)CC3)cc1 (stereo not shown) [Compound 88, tert-Butyl (3′-(4-methoxyphenyl)-4′-oxo-3′,4′-dihydro-1′H-spiro[cyclohexane-1,2′-quinazolin]-4-yl)carbamate] | 1000 to 10000
18 | COCCOc1ccc(N2C(=O)c3ccc(F)cc3NC23CN(Cc2ccc(Cl)cc2)C3)cc1 [Compound 123, 1-(4-Chlorobenzyl)-7′-fluoro-3′-(4-(2-methoxyethoxyl)phenyl)-1′H-spiro[azetidine-3,2′-quinazolin]-4′(3′H)-one] | 1000 to 10000
19 | COc1ccc(N2C(=O)c3ccc(Cl)cc3NC23CCN(Cc2cccc(C#N)c2)CC3)cc1 [Compound 75, 3-((7′-Chloro-3′-(4-methoxyphenyl)-4′-oxo-3′,4′-dihydro-1′H-spiro[piperidine-4,2′-quinazolin]-1-yl)methyl)benzonitrile] | 1000 to 10000
20 | O=C(Nc1ccc(OC(F)(F)F)cc1)c1ccc(Br)cc1O [Compound 125, 4-Bromo-2-hydroxy-N-(4-trifluoromethoxy-phenyl)-benzamide] | < 1000
21 | CC(=O)c1ccc2c(c1)NC1(CCN(Cc3ccc(F)c(F)c3)CC1)N(c1ccc(OC(F)(F)F)cc1)C2=O [Compound 77, 7′-Acetyl-1-(3,4-difluorobenzyl)-3′-(4-(trifluoromethoxy)phenyl)-1′H-spiro[piperidine-4,2′-quinazolin]-4′(3′H)-one] | 1000 to 10000
22 | O=C1c2ccc(Br)cc2NC2(CCN(Cc3cccnc3)CC2)N1c1ccc(OC(F)(F)F)cc1 [Compound 118, 7′-Bromo-1-(pyridin-3-ylmethyl)-3′-(4-(trifluoromethoxy)phenyl)-1′H-spiro[piperidine-4,2′-quinazolin]-4′(3′H)-one] | 1000 to 10000
23 | COc1ccc(N2C(=O)c3ccccc3NC23CCN(Cc2cccc(C(F)(F)F)c2)CC3)cc1 [Compound 96, 3′-(4-Methoxyphenyl)-1-(3-(trifluoromethyl)benzyl)-1′H-spiro[piperidine-4,2′-quinazolin]-4′(3′H)-one] | 1000 to 10000
24 | COc1ccc(N2C(=O)c3ccc(Cl)cc3NC23CCN(Cc2ccccc2Cl)CC3)cc1 [Compound 62, 7′-Chloro-1-(2-chlorobenzyl)-3′-(4-methoxyphenyl)-1′H-spiro[piperidine-4,2′-quinazolin]-4′(3′H)-one] | < 1000
25 | COc1ccc(N2C(=O)c3ccc(C)cc3NC23CCN(Cc2ccc(F)c(F)c2)CC3)cc1 [Compound 60] | < 1000
